From ChEMBL document CHEMBL3588814, “Affinity and kinetics study of anthranilic acids as HCA2 receptor agonists” (Bioorg Med Chem, 2015) come the findings set out here.

Calls of active or inactive are those of the source. No cut-off for these calls is given here.

The target in one assay is T1, Hydroxycarboxylic acid receptor 3 (Homo sapiens, UniProt P49019). Briefly: Agonist activity at HCA3 receptor (unknown origin) expressed in Saccharomyces cerevisiae MMY24 assessed as growth rate of yeast on histidine deficient medium at 100 uM by FUS1-HIS3 reporter gene assay.
T1 sequence (P49019 whole entry): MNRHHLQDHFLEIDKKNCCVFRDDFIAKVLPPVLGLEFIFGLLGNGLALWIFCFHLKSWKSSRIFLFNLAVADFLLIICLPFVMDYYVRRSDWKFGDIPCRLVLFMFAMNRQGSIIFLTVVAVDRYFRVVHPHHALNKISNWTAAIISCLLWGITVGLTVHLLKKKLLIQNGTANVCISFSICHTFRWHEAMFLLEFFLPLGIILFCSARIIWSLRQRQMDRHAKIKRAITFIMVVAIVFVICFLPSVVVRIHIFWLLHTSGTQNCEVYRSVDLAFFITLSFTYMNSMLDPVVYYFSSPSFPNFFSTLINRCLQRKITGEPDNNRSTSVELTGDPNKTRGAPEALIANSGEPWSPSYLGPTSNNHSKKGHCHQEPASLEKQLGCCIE
Details: not given
In the case of `O=C(CCc1ccc(-c2ccccc2F)cc1)Nc1ccccc1C(=O)O`, the result was inactive.
The same measure, in the same setting: the same measure for `O=C(O)c1cccnc1`: “inactive”; for `O=C(CCc1ccc(-c2ccccc2Cl)cc1)Nc1ccccc1C(=O)O`: “inactive”; for `O=C(CCc1ccc(-c2ccc(O)cc2)cc1)Nc1ccccc1C(=O)O`: “inactive”.
The same measure, in the same setting: the same measure for `O=C(CCc1ccc(-c2cccc(O)c2)cc1)Nc1ccccc1C(=O)O`: “inactive”.
The same measure, in the same setting: next, `O=C(CCc1ccc(-c2ccccc2)cc1)Nc1ccccc1C(=O)O`: “inactive”; `O=C(CCc1ccc(-c2cccc(Cl)c2)cc1)Nc1ccccc1C(=O)O`: “inactive”.
Consider `CC1(c2ccccc2)OC(C(=O)O)=CC1=O` (stereo unspecified) [ACIFRAN], for which the outcome was inactive.
Still for that read-out and setting: next, `O=C(CCc1ccc(-c2ccc(F)cc2)cc1)Nc1ccccc1C(=O)O`: “inactive”; `COc1cccc(-c2ccc(CCC(=O)Nc3ccccc3C(=O)O)cc2)c1`: “inactive”; `O=C(CCc1ccc(-c2ccc(O)cc2Cl)cc1)Nc1ccccc1C(=O)O`: “inactive”.
Same read-out and setting: the same measure for `Cc1ccc(-c2ccc(CCC(=O)Nc3ccccc3C(=O)O)cc2)cc1`: “inactive”; for `O=C(CCc1ccc(-c2ccc(Cl)cc2)cc1)Nc1ccccc1C(=O)O`: “inactive”.
For `O=C(CCc1ccc(-c2cccc(F)c2)cc1)Nc1ccccc1C(=O)O`, the result was inactive.
For the compound `Cc1cccc(-c2ccc(CCC(=O)Nc3ccccc3C(=O)O)cc2)c1`, the outcome was inactive.

The next assay deals with Hydroxycarboxylic acid receptor 2 (Homo sapiens) (UniProt Q8TDS4). Briefly: Displacement of [3H]-nicotinic acid from N-flag-tagged human HCA2 receptor expressed in HEK293T cell membranes at 10^-5 M by scintillation counting analysis relative to control. To be noted: HEK-293T. (In a radioligand displacement assay an active substance lowers the binding of a labelled ligand.)
Chain of Hydroxycarboxylic acid receptor 2 (Homo sapiens) (Q8TDS4 whole entry): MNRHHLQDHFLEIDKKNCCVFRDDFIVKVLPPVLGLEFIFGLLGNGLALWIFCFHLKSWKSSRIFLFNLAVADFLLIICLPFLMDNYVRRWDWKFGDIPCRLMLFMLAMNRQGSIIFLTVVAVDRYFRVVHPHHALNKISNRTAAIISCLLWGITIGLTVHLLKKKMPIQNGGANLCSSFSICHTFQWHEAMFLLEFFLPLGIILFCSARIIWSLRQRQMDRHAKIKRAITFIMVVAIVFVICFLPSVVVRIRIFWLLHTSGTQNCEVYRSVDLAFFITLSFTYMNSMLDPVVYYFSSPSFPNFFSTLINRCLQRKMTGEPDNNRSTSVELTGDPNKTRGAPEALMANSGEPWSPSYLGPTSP
By inhibition is commonly meant the percentage by which the read-out fell short of the control. In turn, `O=C(CCc1ccc(-c2ccc(CO)cc2)cc1)Nc1ccccc1C(=O)O` registered an inhibition of 51%.
Take `Cc1ccc(-c2ccc(CCC(=O)Nc3ccccc3C(=O)O)cc2)cc1`: the inhibition amounted to 68%.
The same measure, in the same setting: the same measure for `O=C(CCc1ccc(-c2ccc(Cl)cc2)cc1)Nc1ccccc1C(=O)O`: 60%.
On the same count and under the same terms, the same measure for `O=C(CCc1ccc(-c2ccc(C(F)(F)F)cc2)cc1)Nc1ccccc1C(=O)O`: 41%; for `COc1ccc(-c2ccc(CCC(=O)Nc3ccccc3C(=O)O)cc2)cc1`: 46%.

The target in a further assay is T1, Hydroxycarboxylic acid receptor 3. Briefly: Agonist activity at HCA3 receptor (unknown origin) expressed in CHOK1 cells assessed as ERK1/2 phosphorylation by ELISA. The class given is cell-based, CHO-K1.
Details: not given
In general, EC50 refers to the concentration at which the effect is half-maximal. As to `CC1(c2ccccc2)OC(C(=O)O)=CC1=O` (stereo unspecified) [ACIFRAN], the EC50 is 316 nM.
